Entries after “also recorded” stand apart in the source; their conditions may differ.
Test: Toxicity in treated mice (H&E of organs, body weight)
Type: in vivo
Settings: 120 mg/kg/day; for toxic effects in mouse liver, kidney and spleen (H&E staining): 13 days
Protocol: (A) The H&E staining of the liver, kidney and spleen of mice treated with the DGAT1 inhibitor A922500 (120 mg/kg/day, oral gavage) for 13 days. Scale bar, 50 μm. (B) The body weight of mice treated with vehicle or DGAT1 inhibitor A-922500 (120 mg/kg/day, oral gavage) for 13 days. The mice with DGAT1i treatment lost 8% weight at day 13 treatment compared with the mice weight at day 1.
Paraffin tissue sections were deparaffinized in xylene and rehydrated in degraded ethanol (100%, 95% and 70% ethanol), respectively. After washing with dH2O, slides were stained with hematoxylin and eosin solution in sequence followed by washing with dH2O. Then slides were dehydrated in degraded ethanol and immersed in xylene followed by mounting in Permount.
Intracranial xenograft models were generated using female athymic nude (NCr-nu/nu) mice (6-8 weeks of age obtained from OSU Target Validation Shared Resource). U87EGFRvIII (1×10^6) cells infected with shDGAT1-, shDGAT2- or scramble shRNA-expressing lentivirus for 48 hr (suspended in 100 μl PBS) were implanted into mice flank to generate subcutaneous model. For intracranial xenograft model, U87EGFRvIII-luc (1×10^5) or GBM30-luc (1×10^5) cells infected with shDGAT1-, shDGAT2- or scramble shRNA-expressing lentivirus for 48 hours (suspended in 5 μl PBS) were implanted into mouse brains. Mice were observed until they became moribund, at which point they were sacrificed. For drug treatment, U87EGFRvIII (1×10^6 cells suspended in 100 μl PBS) or GBM30 cells (4×10^6 suspended in 100 μl PBS and then mixed with 100 μl matrigel) were implanted in mouse flanks. DGAT1 inhibitor A-922500 (120 mg/kg/day, oral gavage) was formulated by 1% Tween 80 in PBS and administrated to mice when tumor size reached approximately 80 mm^3.

O=C(Nc1ccccc1)Nc1ccc(-c2ccc(C(=O)[C@@H]3CCC[C@H]3C(=O)O)cc2)cc1 [A-922500]
mice weight decrease (after 13 days, in comparison with vehicle control group): about 8%
toxicity in treated mice (overall) (oral gavage): does not induce noticeable toxic effects; also recorded: no obvious toxicity was observed
toxic effects in mouse liver, kidney and spleen (H&E staining) (oral gavage): did not observe any toxic effects
toxic effects in mouse liver, kidney and spleen (H&E staining) (oral gavage, listed as A922500): no obvious toxic effects
body weight loss (oral gavage, day 13 compared with day 1): 8%

— patent US20240148679A1, “METHODS AND COMPOSITIONS RELATED TO TREATMENT AND PREVENTION OF CANCER BY INHIBITION OF DGAT1 AND DGAT2” (Ohio State Innovation Foundation, priority 2019, published 2024)
